This is an account of results in paper PMC11345829, “Discovery of Potent Isoquinolinequinone N-Oxides to Overcome Cancer Multidrug Resistance” (Journal of Medicinal Chemistry, 2024).

One assay relates to MALME-3M. The experiment in a line: NCI60 five-dose GI50. Format: cell-based. The following applies: Homo sapiens. In short, it runs like this:
(§1)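 SRB read-out (515 nm) after 48 h drug exposure; 5 doses, 10 nM to 100 μM, 10-fold steps, RPMI 1640/5% FBS. Out-of-range values given as > or < tested limits.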

A further assay relates to OVCAR-4. Nature of the assay: NCI60 five-dose GI50. Format: cell-based. Conditions: Homo sapiens. In short, it runs like this:
as §1

A further assay concerns NCI-H322. The experiment in a line: NCI60 five-dose GI50 (NCI data). Conditions: Homo sapiens, SI Table S20. Format: cell-based. An outline of the steps: as §1
The test system of the next assay is A549. Nature of the assay: NCI60 five-dose GI50 (NCI data). It counts as cell-based. The following applies: Homo sapiens, SI Table S20. An excerpt: (§2) The concentration−response curve generated enables the determination of three criteria, GI50 (drug concentration at which 50% of cell growth is inhibited), total growth inhibition (TGI) and LC50 (drug concentration at which 50% of tumor cells are killed) which can be used to compare effectiveness against any compound tested in the screen since its inception.
(§3) S2.1 NCI Screening Assay Experimental details
NCI Screening Assay Experimental: Cancer cell growth assays (NCI60 screening) 5,6 […]
Unbound dye was […]
removed with five washes of 1% acetic acid, and the plates were allowed to air dry. The dye was then resolubilised in Tris buffer, and the colorimetric absorbance was measured (515 nm). Growth inhibition was measured relative to the response generated from proliferating cells cultured under identical conditions for 48 h. Data from one-dose experiments pertains to the percentage growth at […]
Five-dose study: Serial 5 × 10-fold dilution from an initial DMSO stock solution was performed, prior to incubation at each individual concentration (10 nM, 100 nM, 1 μM, 10 μM and 100 μM). Using seven absorbance measurements (time zero (Tz), control growth (C), and test growth in the presence of drug at the five concentration levels (Ti)), the percentage growth was calculated at each of the drug concentrations levels. […] Three dose response parameters were calculated for each experimental agent. […]

The subject of another assay is colon cell line panel. Nature of the assay: NCI60 five-dose GI50, colon cell line panel. The following applies: Homo sapiens, read-out: GI50 range colon cell line panel. It counts as cell-based.
Description: as §2, §3
NCI Screening Assay Experimental: Cancer cell growth assays (NCI60 screening) 5,6 One-dose study: Tested compounds were initially solubilised in DMSO, diluted into RPMI 1640 and 5% fetal bovine serum/L-glutamine, and added to 96-well plates containing cell lines previously cultured for 24 h. […] The dye was then resolubilised in Tris buffer, and the colorimetric absorbance was measured (515 nm). Growth inhibition was measured relative to the response generated from proliferating cells cultured under identical conditions for 48 h. […]
Five-dose study: Serial 5 × 10-fold dilution from an initial DMSO stock solution was performed, prior to incubation at each individual concentration (10 nM, 100 nM, 1 μM, 10 μM and 100 μM). Using seven absorbance measurements (time zero (Tz), control growth (C), and test growth in the presence of drug at the five concentration levels (Ti)), the percentage growth was calculated at each of the drug concentrations levels. […]

In assay [1] the test system is NCI-H460 cells. Nature of the assay: Trypan blue exclusion assay. Format: cell-based, human. Conditions: 48 h; GI50 (0.35 μM) and 2 × GI50 (0.7 μM). The protocol:
After this treatment, cells were mixed with 0.2% (v/v) trypan blue dye (Merck LifeScience) and counted on an hemocytometer (Neubauer Chamber).
S3.4 Effect of 25 on the viable cell number of NCI-H460 cells (Figure S65)
Figure S65 Effect of 25 on the viable cell number of NCI-H460 cells, determined with the Trypan blue exclusion assay. Cells were incubated for 48 h with medium, DMSO (vehicle 1: % of vehicle used at the GI50 concentration of compound; vehicle 2: % of vehicle used at the 2GI50 concentration of compound), […]
compound 25. Results are the mean ± SEM from at least three independent experiments. # p ≤ 0.05 and **** p ≤ 0.0001, when comparing DMSO vs. compound treatment.
(1 picture or pasted object on this page, not shown here)

The test system of assay [2] is NCI-H460 cells. The experiment in a line: Alkaline Comet assay (DNA damage). It counts as cell-based, human. The following applies: 48 h; 2 × GI50; preliminary, data not shown. The protocol: Hydrogen peroxide (Sigma-Aldrich) was used as a positive control (50 μM). Harvested cells were resuspended in 0.5% low melting point agarose (Thermo Fisher Scientific) and poured onto slides precoated with 1% normal melting point agarose (Sigma-Aldrich). Cells were then lysed with ice-cold lysis buffer [100 mM Na2EDTA (Sigma-Aldrich), […] (Sigma-Aldrich), 10 mM Tris-Base (Sigma-Aldrich), pH 10.0, 1% and Triton X-100 (Sigma-Aldrich)) for 2 h in the dark at 4 °C. Then, after two washes with distilled water, slides were placed on an electrophoresis tank filled with electrophoresis buffer [300 mM NaOH (Sigma-Aldrich), 1 mM Na2EDTA; pH 13.0] and incubated for 40 min to allow DNA to unwind. Electrophoresis was carried out for 20 min at 32 V. Then slides were immersed twice in pure ethanol and allowed to dry at RT. Slides were stained with SyberGold staining solution (Invitrogen) in Tris-EDTA buffer [10 mM Tris-HCl (Sigma-Aldrich) and 1 mM EDTA (Sigma-Aldrich); pH 7.5] for 30 min with agitation and protected from light. In the end, slides washed and dried were visualized on a Zeiss Axio Imager Z1 microscope, equipped with the Axiovision 4.9 software.

In a further assay the test system is NCI-H460/R spheroids. Nature of the assay: Cell Titer-Glo 3D spheroid viability assay. Format: cell-based, human. Conditions: 48 h; 25 at 0.35 and 0.7 μM; etoposide 2 μM.
Assay [3] has as its system NCI-H460 cells. Also noted: method as in PMID 34915071. The following applies: cited from earlier work.

Description for NCI-H460/R spheroids: Results are presented as the % of luciferase luminescence relative to the “blank” cells (medium).
Spheroid formation was conducted in 12-series agarose 3D Petri Dish micromolds (MicroTissues Technology, MicroTissues Inc., Sigma-Aldrich). The agarose micromolds were prepared using 1% agarose in a 0.9% NaCl solution and then placed in 12-well plates and equilibrated with RPMI supplemented with 10% FBS for at least 2 h before cell seeding. Cell suspensions corresponding to 500 cells per spheroid of the NSCLC cell lines (NCI-H460 and NCI-H460/R), and 1000 cells per spheroid of the colorectal cancer cell lines (DLD1 and DLD1-TxR) were seeded in the corresponding micromolds. […] Spheroid formation was monitored with the Leica DMi1 microscope. […] At the end of the treatment, images from at least 8 different spheroids per condition were captured on the Leica Dmi1 microscope, and posteriorly analyzed with the automated open-source software AnaSP.[82] Spheroid parameters, such as equivalent diameter, circularity, and compactness, were calculated.
Spheroid viability was determined through the luminescence-based Cell Titer-Glo 3D cell viability assay (Promega). […] The plate was then incubated in the dark for 5 min with agitation and allowed to rest for 25 min before luminescence measurement. Luminescence was quantified using the microplate reader Synergy MX coupled with the GEN5 software. […]

For `COC(=O)c1c2c(c[n+]([O-])c1C)C(=O)C=C(NCc1ccccc1)C2=O` [Compound 25], the GI50 in the assay on MALME-3M is 0.048 µM; in the assay on OVCAR-4, 0.069 µM; in the assay with NCI-H322 it was 0.174 µM; with A549, 0.232 µM; in the assay with colon cell line panel, 0.157 to 0.247 µM. In the assay on NCI-H460 cells [1], the “percentage of viable cells” value is reported as “significant decrease in the percentage of viable cells”. Besides, in the assay on NCI-H460 cells [2], the DNA damage result is “did not increase DNA damage”. Further, in the assay on NCI-H460/R spheroids, the “viability of NCI-H460/R spheroids” value is reported as “significant decrease in the viability of the spheroids”.
Regarding `COc1cccc2c1C(=O)c1c(O)c3c(c(O)c1C2=O)C[C@@](O)(C(=O)CO)C[C@@H]3O[C@H]1C[C@H](N)[C@H](O)[C@H](C)O1` [doxorubicin, reference compound], the “concentration reducing viability of NCI-H460 cells in 2D models” value with NCI-H460 cells [3] is 0.1 µM.

One may read the GI50 as the concentration that inhibits growth by half.
